Experimental data as given in PubChem BioAssay AID2060501 (Molecular Pharmacology Branch, DTP, NCI, 2025).

System: 282377-053-R-J1-PDC complex spheroids, viability
Experiment: Anticancer human tumor 282377-053-R-J1-PDC patient-derived colon adenocarcinoma cell line growth inhibition [GQUAD]
Conditions: for IC50: curve of first compound; for viability, T/C: stronger effect = lower value; active = viability on the fitted dose curve at most 10% of control; inactive = the rest
Summary of the method: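 Viability of tumor cells grown as complex spheroids with endothelial and stromal cells, exposed to drug combinations. Top concentration at or near clinical Cmax (else 10 microM), diluted in half-log increments.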

[1] = second compound 0.0316 µM, first compound 0.0316 µM
[2] = second compound 0.0316 µM, first compound 0.1 µM
[3] = second compound 0.0316 µM, first compound 0.316 µM
[4] = second compound 0.0316 µM, first compound 1 µM
[5] = second compound 0.0316 µM, first compound 3.16 µM
[6] = second compound 0.0316 µM, first compound 10 µM
[7] = second compound 0.1 µM, first compound 0.0316 µM
[8] = second compound 0.1 µM, first compound 0.1 µM
[9] = second compound 0.1 µM, first compound 0.316 µM
[10] = second compound 0.1 µM, first compound 1 µM
[11] = second compound 0.1 µM, first compound 3.16 µM
[12] = second compound 0.1 µM, first compound 10 µM
[13] = second compound 0.316 µM, first compound 0.0316 µM
[14] = second compound 0.316 µM, first compound 0.1 µM
[15] = second compound 0.316 µM, first compound 0.316 µM
[16] = second compound 0.316 µM, first compound 1 µM
[17] = second compound 0.316 µM, first compound 3.16 µM
[18] = second compound 0.316 µM, first compound 10 µM
[19] = second compound 1 µM, first compound 0.0316 µM
[20] = second compound 1 µM, first compound 0.1 µM
[21] = second compound 1 µM, first compound 0.316 µM
[22] = second compound 1 µM, first compound 1 µM
[23] = second compound 1 µM, first compound 3.16 µM
[24] = second compound 1 µM, first compound 10 µM
[25] = second compound 3.16 µM, first compound 0.0316 µM
[26] = second compound 3.16 µM, first compound 0.1 µM
[27] = second compound 3.16 µM, first compound 0.316 µM
[28] = second compound 3.16 µM, first compound 1 µM
[29] = second compound 3.16 µM, first compound 3.16 µM
[30] = second compound 3.16 µM, first compound 10 µM
[31] = second compound 10 µM, first compound 0.0316 µM
[32] = second compound 10 µM, first compound 0.1 µM
[33] = second compound 10 µM, first compound 0.316 µM
[34] = second compound 10 µM, first compound 1 µM
[35] = second compound 10 µM, first compound 3.16 µM
[36] = second compound 10 µM, first compound 10 µM
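Note: spheroids exposed to compounds for 7 days before readout.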
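Throughout, for viability, T/C: percent of vehicle DMSO control viability with 100% = untreated-like growth.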

C#Cc1c(F)ccc2cc(O)cc(-c3ncc4c(N5CC6CCC(C5)N6)nc(OCC56CCCN5CC(F)C6)nc4c3F)c12 (stereo not given) + Cc1cnc(CNC(=O)c2c(=O)c3ccc(N4CCCN(C)CC4)nc3n3c2sc2ccccc23)cn1
4140 nM: IC50 (second compound 3.16 µM)
> 10000 nM: IC50 (second compound 0.0316 µM) | IC50 (second compound 0.1 µM) | IC50 (second compound 0.316 µM) | IC50 (second compound 1 µM)
inactive: viability, T/C [1] 102% | viability, T/C [2] 87.4% | viability, T/C [3] 122% | viability, T/C [4] 83.2% | viability, T/C [5] 100% | viability, T/C [6] 94.7% | viability, T/C [7] 127% | viability, T/C [8] 109% | viability, T/C [9] 89.9% | viability, T/C [10] 86% | viability, T/C [11] 120% | viability, T/C [12] 93.5% | viability, T/C [13] 86.5% | viability, T/C [14] 102% | viability, T/C [15] 85.5% | viability, T/C [16] 77.1% | viability, T/C [17] 91.3% | viability, T/C [18] 83.9% | viability, T/C [19] 64.3% | viability, T/C [20] 47.6% | viability, T/C [21] 47.2% | viability, T/C [22] 59.2% | viability, T/C [23] 71.8% | viability, T/C [24] 58.5% | viability, T/C [25] 46.5% | viability, T/C [26] 53% | viability, T/C [27] 58.5% | viability, T/C [28] 52.2% | viability, T/C [29] 51.7% | viability, T/C [30] 44.1% | viability, T/C [31] 36.8% | viability, T/C [32] 40.3% | viability, T/C [33] 52.9% | viability, T/C [34] 46% | viability, T/C [35] 45.7% | viability, T/C [36] 37.8%
< 31.6 nM: IC50 (second compound 10 µM)

CC(=O)O[C@H]1C(=O)[C@@]2(C)[C@H]([C@H](OC(=O)c3ccccc3)[C@]3(O)C[C@H](OC(=O)[C@H](O)[C@@H](NC(=O)c4ccccc4)c4ccccc4)C(C)=C1C3(C)C)[C@]1(OC(C)=O)CO[C@@H]1C[C@@H]2O + Cc1cnc(CNC(=O)c2c(=O)c3ccc(N4CCCN(C)CC4)nc3n3c2sc2ccccc23)cn1
inactive: viability, T/C [1] 42.7% | viability, T/C [2] 17.2% | viability, T/C [3] 21.4% | viability, T/C [4] 18.4% | viability, T/C [5] 20.4% | viability, T/C [6] 24.9% | viability, T/C [7] 44.1% | viability, T/C [8] 22.9% | viability, T/C [9] 23.9% | viability, T/C [10] 21.6% | viability, T/C [11] 26.1% | viability, T/C [12] 27.9% | viability, T/C [13] 47.7% | viability, T/C [14] 24.4% | viability, T/C [15] 24.9% | viability, T/C [16] 31.5% | viability, T/C [17] 33.7% | viability, T/C [18] 33.9% | viability, T/C [19] 38.1% | viability, T/C [20] 26.6% | viability, T/C [21] 24.6% | viability, T/C [22] 32.1% | viability, T/C [23] 35.2% | viability, T/C [24] 31.4% | viability, T/C [25] 37.8% | viability, T/C [26] 23.8% | viability, T/C [27] 29.8% | viability, T/C [28] 25.2% | viability, T/C [29] 28.4% | viability, T/C [30] 30.4% | viability, T/C [31] 25.5% | viability, T/C [32] 17% | viability, T/C [33] 23% | viability, T/C [34] 24.1% | viability, T/C [35] 35.6% | viability, T/C [36] 18.4%
< 31.6 nM: IC50 (second compound 0.0316 µM) | IC50 (second compound 0.1 µM) | IC50 (second compound 0.316 µM) | IC50 (second compound 1 µM) | IC50 (second compound 3.16 µM) | IC50 (second compound 10 µM)

CCCS(=O)(=O)Nc1ccc(F)c(C(=O)c2c[nH]c3ncc(-c4ccc(Cl)cc4)cc23)c1F + Cc1cnc(CNC(=O)c2c(=O)c3ccc(N4CCCN(C)CC4)nc3n3c2sc2ccccc23)cn1
34.9 nM: IC50 (second compound 1 µM)
< 31.6 nM: IC50 (second compound 3.16 µM) | IC50 (second compound 10 µM)
inactive: viability, T/C [1] 89.5% | viability, T/C [2] 53.1% | viability, T/C [3] 72% | viability, T/C [4] 52.7% | viability, T/C [5] 54.9% | viability, T/C [6] 11.8% | viability, T/C [7] 77.5% | viability, T/C [8] 63.9% | viability, T/C [9] 56.6% | viability, T/C [10] 55.7% | viability, T/C [11] 45.4% | viability, T/C [12] 11.6% | viability, T/C [13] 64.5% | viability, T/C [14] 57% | viability, T/C [15] 46.9% | viability, T/C [16] 39.5% | viability, T/C [17] 41.4% | viability, T/C [18] 11.3% | viability, T/C [19] 52.6% | viability, T/C [20] 44.6% | viability, T/C [21] 38.3% | viability, T/C [22] 30.3% | viability, T/C [23] 34.4% | viability, T/C [24] 9.31% | viability, T/C [25] 39.5% | viability, T/C [26] 29.4% | viability, T/C [27] 28.8% | viability, T/C [28] 25.9% | viability, T/C [29] 30.4% | viability, T/C [31] 31.3% | viability, T/C [32] 31.3% | viability, T/C [33] 22.9% | viability, T/C [34] 23.3% | viability, T/C [35] 7.59%
active: viability, T/C [30] 0.11% | viability, T/C [36] 0.33%
2280 nM: IC50 (second compound 0.0316 µM)
393 nM: IC50 (second compound 0.316 µM)
1480 nM: IC50 (second compound 0.1 µM)

COc1cccc2c1C(=O)c1c(O)c3c(c(O)c1C2=O)CC(O)(C(=O)CO)CC3OC1CC(N)C(O)C(C)O1 (stereo not given) + Cc1cnc(CNC(=O)c2c(=O)c3ccc(N4CCCN(C)CC4)nc3n3c2sc2ccccc23)cn1
active: viability, T/C [6] 1.72% | viability, T/C [12] 1.51% | viability, T/C [18] 1% | viability, T/C [24] 0.83% | viability, T/C [30] 0.74% | viability, T/C [35] 2.37% | viability, T/C [36] 0.53%
< 31.6 nM: IC50 (second compound 10 µM)
inactive: viability, T/C [1] 140% | viability, T/C [2] 118% | viability, T/C [3] 83.6% | viability, T/C [4] 55.6% | viability, T/C [5] 11.3% | viability, T/C [7] 99.8% | viability, T/C [8] 97.5% | viability, T/C [9] 82% | viability, T/C [10] 41.1% | viability, T/C [11] 13.1% | viability, T/C [13] 91.6% | viability, T/C [14] 95.1% | viability, T/C [15] 55.5% | viability, T/C [16] 38.9% | viability, T/C [17] 11.9% | viability, T/C [19] 68.2% | viability, T/C [20] 59.6% | viability, T/C [21] 44.3% | viability, T/C [22] 44.8% | viability, T/C [23] 8.25% | viability, T/C [25] 56.4% | viability, T/C [26] 62% | viability, T/C [27] 41.3% | viability, T/C [28] 40.1% | viability, T/C [29] 8.56% | viability, T/C [31] 54.4% | viability, T/C [32] 46.4% | viability, T/C [33] 47% | viability, T/C [34] 39.9%
545 nM: IC50 (second compound 0.316 µM)
794 nM: IC50 (second compound 0.1 µM)
297 nM: IC50 (second compound 3.16 µM)
331 nM: IC50 (second compound 1 µM)
970 nM: IC50 (second compound 0.0316 µM)

O=c1[nH]cc(F)c(=O)[nH]1 + Cc1cnc(CNC(=O)c2c(=O)c3ccc(N4CCCN(C)CC4)nc3n3c2sc2ccccc23)cn1
> 10000 nM: IC50 (second compound 0.0316 µM) | IC50 (second compound 0.1 µM) | IC50 (second compound 0.316 µM) | IC50 (second compound 1 µM) | IC50 (second compound 3.16 µM)
< 31.6 nM: IC50 (second compound 10 µM)
inactive: viability, T/C [1] 98.6% | viability, T/C [2] 92.1% | viability, T/C [3] 114% | viability, T/C [4] 82.9% | viability, T/C [5] 77% | viability, T/C [6] 65.4% | viability, T/C [7] 94.6% | viability, T/C [8] 97.7% | viability, T/C [9] 107% | viability, T/C [10] 76.2% | viability, T/C [11] 76.1% | viability, T/C [12] 65% | viability, T/C [13] 78.3% | viability, T/C [14] 82.6% | viability, T/C [15] 81.4% | viability, T/C [16] 76.3% | viability, T/C [17] 68.5% | viability, T/C [18] 62.8% | viability, T/C [19] 51.3% | viability, T/C [20] 51.8% | viability, T/C [21] 62.5% | viability, T/C [22] 56.8% | viability, T/C [23] 55.6% | viability, T/C [24] 48.3% | viability, T/C [25] 54.8% | viability, T/C [26] 50.1% | viability, T/C [27] 49% | viability, T/C [28] 44.2% | viability, T/C [29] 63.6% | viability, T/C [30] 53.9% | viability, T/C [31] 46.4% | viability, T/C [32] 45.7% | viability, T/C [33] 54.5% | viability, T/C [34] 52.5% | viability, T/C [35] 54.5% | viability, T/C [36] 34.9%
